Test system: Mycobacterium tuberculosis
Assay: Antituberculosis activity against Mycobacterium tuberculosis H37Rv ATCC 27294 by modified BACTEC 460 method
Type: functional, organism-based
Settings: for IC90 / IC50: Mycobacterium tuberculosis, H37Rv ATCC 27294

SMILES | pIC90 | IC90 [µM] | IC50 (read-out: IC50) [µM] | IC50 (read-out: pIC50 (converted)) [µM]
Fc1ccc(-c2nn(-c3ccccc3)cc2[C@H]2CC(c3ccc(Cl)cc3)=NN2)cc1 | 4.16 | 68.7 | 43.3 | 43.7
O=C(c1ccccc1)N1N=C(c2ccccc2)C[C@@H]1c1cn(-c2ccccc2)nc1-c1ccc(F)cc1 | 4.06 | 86.4 | 50.4 | 50.1
O=NN1N=C(c2cccs2)C[C@@H]1c1cn(-c2ccccc2)nc1-c1ccc(F)cc1 | 4.33 | 46.3 | 26.4 | 26.3
Nc1nc(-c2ccc(Cl)cc2)cc(-c2cn(-c3ccccc3)nc2-c2ccc(F)cc2)n1 | <3.65 | > 226 | 95.5 | 95.5
O=[N+]([O-])c1cccc(C2=NN[C@@H](c3cn(-c4ccccc4)nc3-c3ccc(F)cc3)C2)c1 | 4.16 | 68.7 | 39 | 38.9
O=C(/C=C/c1cn(-c2ccccc2)nc1-c1ccc(F)cc1)c1ccc([N+](=O)[O-])cc1 | 4.27 | 53.5 | 12.7 | 12.6
Fc1ccc(-c2nn(-c3ccccc3)cc2-c2cc(-c3ccc(Cl)cc3)nc(=S)[nH]2)cc1 | 4.74 | 18 | 10.3 | 10.2
Oc1ccc(-c2cc(-c3cn(-c4ccccc4)nc3-c3ccc(F)cc3)[nH]c(=S)n2)cc1 | <3.64 | > 227 | 69.2 | 69.2
O=C(/C=C/c1cn(-c2ccccc2)nc1-c1ccc(F)cc1)c1ccc(O)cc1 | 5.07 | 8.47 | 7.46 | 7.41
O=C(/C=C/c1cn(-c2ccccc2)nc1-c1ccc(F)cc1)c1cccs1 | 4.87 | 13.5 | 8.08 | 8.13
Oc1ccccc1-c1cc(-c2cn(-c3ccccc3)nc2-c2ccc(F)cc2)[nH]c(=S)n1 | 4.95 | 11.2 | 8.29 | 8.32
O=NN1N=C(c2ccc([N+](=O)[O-])cc2)C[C@@H]1c1cn(-c2ccccc2)nc1-c1ccc(F)cc1 | 4.39 | 40.5 | 25.3 | 25.1
Nc1ccc(-c2cc(-c3cn(-c4ccccc4)nc3-c3ccc(F)cc3)[nH]c(=S)n2)cc1 | <3.64 | > 228 | 22.1 | 21.9
COc1ccc(C2=NN(C(=O)c3ccccc3)[C@@H](c3cn(-c4ccccc4)nc3-c3ccc(F)cc3)C2)cc1 | 4.62 | 23.8 | 13.8 | 13.8
O=C(/C=C/c1cn(-c2ccccc2)nc1-c1ccc(F)cc1)c1ccc(Cl)cc1 | 4.15 | 71.3 | 33.9 | 33.9
O=C(c1ccccc1)N1N=C(c2cccs2)C[C@@H]1c1cn(-c2ccccc2)nc1-c1ccc(F)cc1 | 4.05 | 88.7 | 46.9 | 46.8
O=[N+]([O-])c1ccc(-c2cc(-c3cn(-c4ccccc4)nc3-c3ccc(F)cc3)[nH]c(=S)n2)cc1 | 4.88 | 13.1 | 12.2 | 12
O=C(c1ccccc1)N1N=C(c2ccc([N+](=O)[O-])cc2)C[C@@H]1c1cn(-c2ccccc2)nc1-c1ccc(F)cc1 | <3.73 | > 187 | 57.4 | 57.5
Cc1ccc(-c2cc(-c3cn(-c4ccccc4)nc3-c3ccc(F)cc3)[nH]c(=S)n2)cc1 | 4.45 | 35.5 | 22.2 | 22.4
Fc1ccc(-c2nn(-c3ccccc3)cc2-c2cc(-c3cccs3)nc(=S)[nH]2)cc1 | 4.06 | 86.4 | 22.6 | 22.4
Nc1ccc(-c2cc(-c3cn(-c4ccccc4)nc3-c3ccc(F)cc3)nc(N)n2)cc1 | 4.82 | 15 | 13.8 | 13.8
Nc1nc(-c2ccc(O)cc2)cc(-c2cn(-c3ccccc3)nc2-c2ccc(F)cc2)n1 | 6.05 | 0.88 | 0.47 | 0.468
Cc1ccc(C(=O)/C=C/c2cn(-c3ccccc3)nc2-c2ccc(F)cc2)cc1 | 5.1 | 7.96 | 7.18 | 7.24
O=C(c1ccccc1)N1N=C(c2ccc(Cl)cc2)C[C@@H]1c1cn(-c2ccccc2)nc1-c1ccc(F)cc1 | <3.72 | > 192 | 51.4 | 51.3
O=NN1N=C(c2ccccc2O)C[C@@H]1c1cn(-c2ccccc2)nc1-c1ccc(F)cc1 | <3.63 | > 234 | 119 | 117
O=C(c1ccccc1)N1N=C(c2cccc([N+](=O)[O-])c2)C[C@@H]1c1cn(-c2ccccc2)nc1-c1ccc(F)cc1 | 3.99 | 101 | 42.4 | 42.7

SMILES | pIC90 | IC90 [µM] | IC50 (read-out: IC50) [µM] | IC50 (read-out: pIC50 (converted)) [µM]
O=C(/C=C/c1cn(-c2ccccc2)nc1-c1ccc(F)cc1)c1ccc(F)cc1 | 5.09 | 8.09 | 7.14 | 7.08
O=NN1N=C(c2ccc(Br)cc2)C[C@@H]1c1cn(-c2ccccc2)nc1-c1ccc(F)cc1 | 4.47 | 33.7 | 21.4 | 21.4
O=[N+]([O-])c1cccc(-c2cc(-c3cn(-c4ccccc4)nc3-c3ccc(F)cc3)[nH]c(=S)n2)c1 | 4.37 | 43 | 27.9 | 28.2
Fc1ccc(-c2nn(-c3ccccc3)cc2-c2cc(-c3ccc(Br)cc3)nc(=S)[nH]2)cc1 | 4.42 |  |  | 115
Nc1ccc(C2=NN(N=O)[C@@H](c3cn(-c4ccccc4)nc3-c3ccc(F)cc3)C2)cc1 | 4.42 | 37.8 | 20.9 | 20.9
COc1ccc(C2=NN[C@@H](c3cn(-c4ccccc4)nc3-c3ccc(F)cc3)C2)cc1 | 4.91 | 12.3 | 0.47 | 0.468
Cc1ccc(C2=NN(C(=O)c3ccccc3)[C@@H](c3cn(-c4ccccc4)nc3-c3ccc(F)cc3)C2)cc1 | 5.46 | 3.48 | 3.02 | 3.02
Nc1nc(-c2ccc([N+](=O)[O-])cc2)cc(-c2cn(-c3ccccc3)nc2-c2ccc(F)cc2)n1 | <3.66 | > 220 | 75.4 | 75.9
O=C(/C=C/c1cn(-c2ccccc2)nc1-c1ccc(F)cc1)c1ccccc1O | 4.34 | 45.4 | 26.2 | 26.3
Nc1nc(-c2ccccc2O)cc(-c2cn(-c3ccccc3)nc2-c2ccc(F)cc2)n1 | 4.18 | 65.9 | 57 | 57.5
O=C(/C=C/c1cn(-c2ccccc2)nc1-c1ccc(F)cc1)c1ccc(Br)cc1 | 4.74 | 18.1 | 9.77 | 9.77
Cc1ccc(C2=NN[C@@H](c3cn(-c4ccccc4)nc3-c3ccc(F)cc3)C2)cc1 | 5.39 |  |  | 5.37
Nc1nc(-c2ccccc2)cc(-c2cn(-c3ccccc3)nc2-c2ccc(F)cc2)n1 | 5 | 9.94 | 5.94 | 5.89
Nc1nc(-c2ccc(Br)cc2)cc(-c2cn(-c3ccccc3)nc2-c2ccc(F)cc2)n1 | 4.84 | 14.5 | 10.6 | 10.7
COc1ccc(C(=O)/C=C/c2cn(-c3ccccc3)nc2-c2ccc(F)cc2)cc1 | 5 | 10.1 | 6.39 | 6.46
Oc1ccc(C2=NN[C@@H](c3cn(-c4ccccc4)nc3-c3ccc(F)cc3)C2)cc1 | 4.3 | 49.8 | 31 | 30.9
O=C(/C=C/c1cn(-c2ccccc2)nc1-c1ccc(F)cc1)c1ccccc1 | 4.79 | 16.3 | 10.5 | 10.5
Fc1ccc(-c2nn(-c3ccccc3)cc2[C@H]2CC(c3ccc(Br)cc3)=NN2)cc1 | 4.64 | 22.9 | 7.9 | 7.94
O=C(c1ccccc1)N1N=C(c2ccc(F)cc2)C[C@@H]1c1cn(-c2ccccc2)nc1-c1ccc(F)cc1 | 5.49 | 3.22 | 2.65 | 2.63
Nc1nc(-c2ccc(F)cc2)cc(-c2cn(-c3ccccc3)nc2-c2ccc(F)cc2)n1 | 4.07 | 84.3 | 36.8 | 37.2
Oc1ccccc1C1=NN[C@@H](c2cn(-c3ccccc3)nc2-c2ccc(F)cc2)C1 | 4.5 | 31.7 | 28.1 | 28.2
Nc1nc(-c2cccc([N+](=O)[O-])c2)cc(-c2cn(-c3ccccc3)nc2-c2ccc(F)cc2)n1 | <3.66 | > 220 | 52.9 | 52.5
O=C(c1ccccc1)N1N=C(c2ccc(Br)cc2)C[C@@H]1c1cn(-c2ccccc2)nc1-c1ccc(F)cc1 | 4.12 | 75.7 | 37.8 | 38
O=NN1N=C(c2cccc([N+](=O)[O-])c2)C[C@@H]1c1cn(-c2ccccc2)nc1-c1ccc(F)cc1 | 4.48 | 33.4 | 22.5 | 22.4
Nc1ccc(C2=NN[C@@H](c3cn(-c4ccccc4)nc3-c3ccc(F)cc3)C2)cc1 | 3.9 | 127 | 74.4 | 74.1
